Measurements: patent US20110281951A1, “Compositions and methods for treating amyloidosis” (priority 1999, published 2011)
“And” between values parts separate entries of the source, which are not always exact repeats. Equal entries are not always repeated.

target: T1, Aβ(1-40) (Homo sapiens, UniProt P05067); test: Circular dichroism analysis, pre-incubation assay, β-sheet at 218 nm; assay type: biochemical; details: 0 h; CD 218 nm; 0.02M Tris pH 7.4
T1 construct: Prepare a fresh 40 μm solution of Aβ(1-40) in 0.02M Tris, pH 7.4; made in house; host or cells: chemical synthesis (FMOC), HPLC purified
Description: The assay is conducted as follows:
Instrument: JASCO J-715 Spectropolarimeter.
Cell/cuvette: Hellma quartz (QS) with 1.0 mm pathlength Room temperature. Wavelength interval: 250 nm-190 nm.
Band width: 1.0 nm Response time: 1 sec Scanning speed: 20 nm/min Number of accumulations/spectrum: 5
1. Prepare a fresh 40 μm solution of Aβ(1-40) in 0.02M Tris, pH 7.4.
2. Prepare a 1 mM solution of test compounds in 0.02M Tris, pH 7.4.
3. Combine equal volumes of the Aβ(1-40) and test compound solutions.
4. Incubate the mixtures for 19 h.
5. Take the CD spectrum using the parameters above.
6. Return the mixtures to the incubator and incubate to 43 h.
7. Take the CD spectrum using the parameters above. • Inhibition of Aβ40 assembly/aggregation is determined by comparing the amount of b-sheet structure) appearing at lambda=218 nm) obtained in control and in treated sample at each timepoint.

T1 sequence (P05067 672-711 limits assumed): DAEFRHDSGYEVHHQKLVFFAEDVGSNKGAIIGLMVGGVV

Row | Structure (SMILES) | relative inhibition compared to Aβ alone, incubation time 0 h
1 | O=S(=O)(O)CCCN1CCCc2ccccc21 [III, 3-[1-(1,2,3,4-tetrahydroquinolinyl)]-1-propanesulfonic acid] | — (No effect compared to Aβ alone)
2 | COc1ccc2c(c1)CCN(CCCS(=O)(=O)O)C2 [IX, 3-[2-(6-methoxy-1,2,3,4-tetrahydroisoquinolinyl)]-1-propanesulfonic acid] | + (+: 0-25%)
3 | N[C@@H](Cc1cccc(CS(=O)(=O)O)c1)C(=O)O [LVXIII, 3-Sulfomethyl-L-phenylalanine] | — (No effect compared to Aβ alone)

Continued, values first:

Row | relative inhibition compared to Aβ alone, incubation time 0 h | Structure (SMILES)
4 | + (+: 0-25%) | O=S(=O)(O)CCCN1CCc2ccccc21 [VII, 3-(1-indolinyl)-1-propanesulfonic acid]
5 | + (+: 0-25%) | CC(=O)NCCCS(=O)(=O)O [VIII, 3-acetylamino-1-propanesulfonic acid]
6 | + (+: 0-25%) | O=C(NCCCS(=O)(=O)O)c1ccccc1 [X, 3-benzoylamino-1-propanesulfonic acid]

same assay, conditions: 19 h; CD 218 nm; 0.02M Tris pH 7.4

Row | Structure (SMILES) | relative inhibition compared to Aβ alone, incubation time 19 h
7 | O=S(=O)(O)CCCN1CCCc2ccccc21 [III, 3-[1-(1,2,3,4-tetrahydroquinolinyl)]-1-propanesulfonic acid] | + (+: 0-25%)
8 | COc1ccc2c(c1)CCN(CCCS(=O)(=O)O)C2 [IX, 3-[2-(6-methoxy-1,2,3,4-tetrahydroisoquinolinyl)]-1-propanesulfonic acid] | +++ (+++: 50-75%)
9 | N[C@@H](Cc1cccc(CS(=O)(=O)O)c1)C(=O)O [LVXIII, 3-Sulfomethyl-L-phenylalanine] | ++++ (++++: 75-100%)

Further lines, results first:

Row | relative inhibition compared to Aβ alone, incubation time 19 h | Structure (SMILES)
10 | ++ (++: 25-50%) | O=S(=O)(O)CCCN1CCc2ccccc21 [VII, 3-(1-indolinyl)-1-propanesulfonic acid]
11 | ++++ (++++: 75-100%) | CC(=O)NCCCS(=O)(=O)O [VIII, 3-acetylamino-1-propanesulfonic acid]
12 | ++ (++: 25-50%) | O=C(NCCCS(=O)(=O)O)c1ccccc1 [X, 3-benzoylamino-1-propanesulfonic acid]

same assay, conditions: 43 h; CD 218 nm; 0.02M Tris pH 7.4

Row | Structure (SMILES) | relative inhibition compared to Aβ alone, incubation time 43 h
13 | O=S(=O)(O)CCCN1CCCc2ccccc21 [III, 3-[1-(1,2,3,4-tetrahydroquinolinyl)]-1-propanesulfonic acid] | ++ (++: 25-50%)
14 | COc1ccc2c(c1)CCN(CCCS(=O)(=O)O)C2 [IX, 3-[2-(6-methoxy-1,2,3,4-tetrahydroisoquinolinyl)]-1-propanesulfonic acid] | ++ (++: 25-50%)
15 | N[C@@H](Cc1cccc(CS(=O)(=O)O)c1)C(=O)O [LVXIII, 3-Sulfomethyl-L-phenylalanine] | — (No effect compared to Aβ alone)

Continued, values first:

Row | relative inhibition compared to Aβ alone, incubation time 43 h | Structure (SMILES)
16 | ++ (++: 25-50%) | O=S(=O)(O)CCCN1CCc2ccccc21 [VII, 3-(1-indolinyl)-1-propanesulfonic acid]
17 | +++ (+++: 50-75%) | CC(=O)NCCCS(=O)(=O)O [VIII, 3-acetylamino-1-propanesulfonic acid]
18 | ++ (++: 25-50%) | O=C(NCCCS(=O)(=O)O)c1ccccc1 [X, 3-benzoylamino-1-propanesulfonic acid]

target: T2, splenic Amyloid A fibrils (Mus musculus, UniProt P05367); test: Acute AEF-AgNO3-induced amyloidosis mouse model (secondary amyloidosis); assay type: in vivo, mice; details: 3.13 mg/ml in drinking solution, 5 days
T2 construct: from tissue; host or cells: spleen of CBA/J mice (AEF/AgNO3-induced amyloidosis)
T2 sequence (P05367 20-95 limits assumed): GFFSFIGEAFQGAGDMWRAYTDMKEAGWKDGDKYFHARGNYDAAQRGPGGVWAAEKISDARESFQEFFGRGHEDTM
Description: The in vivo screening is based on the acute AEF-AgNO3-induced amyloidosis mouse model. The test is conducted on a total of 6 days and each compound administered in the drinking solution for a 5-day period.
Female mice of CBA/J strain are individually identified, weighed and assigned to a group of 5 animals following an acclimation period. The amyloidosis is induced by intravenous injection of 100 μg of AEF (amyloid enhancing factor) concomitantly with a subcutaneous injection of 0.5 ml of 2% of a solution of AgNO3. Animals in the negative control group are injected with saline only.
Twenty-four hours following the amyloidosis induction, the compound is added to a 1% solution of sucrose (vehicle) and distributed to animals in drinking bottles for a period of 5 days. Animals in the positive control group receive the vehicle only. Drinking solutions are made available ad libitum to each group of animals and the volume measured before and after use to calculate the consumption of each solution. Blood samples are collected for in vitro determination of plasma serum amyloid A levels.
On day 6, mice are sacrificed, weighed and organs such as spleen are existed and fixed in acid alcohol. Spleen samples are processed, embedded in paraffin wax and cut inyo sections. Spleen sections from each animal are stained with the Congo Red staining solution and the splenic Amyloid A fibrils aggregation evaluated by image analysis. Results are expressed as % of AA fibrils deposited in the splenic perifollicular area. Raw data is analyzed.
Mean of mouse body weight and the mean consumption of the drinking solution (ml) are compiled. Variation of the body weight before the induction and at the end of the assay is calculated (%). The dose level of the compound consumed (mg/kg/day) is calculated as well.
P-values for Student t-test and Mann-Whitney tests comparing a group to the positive control are calculated using GraphPad Prism computer software. The mean of the image analysis reading of spleen serious for a group is expressed as percentage of the mean of the image analysis readings for the positive control group (% PC).

Row | Structure (SMILES) | % PC (splenic AA fibrils, % of positive control) [% PC]
19 | O=S(=O)(O)CCCN1CCC2=C(CCCC2)C1 [XVIII, 3-[2-(1,2,3,4,5,6,7,8-octahydroisoquinolinyl)]-1-propanesulfonic acid] | 74

same assay, conditions: 3.5 mg/ml in drinking solution, 5 days

Row | % PC (splenic AA fibrils, % of positive control) [% PC] | Structure (SMILES)
20 | 113 | O=S(=O)(O)CCCN1CCCc2ccccc21 [III, 3-[1-(1,2,3,4-tetrahydroquinolinyl)]-1-propanesulfonic acid]

same assay, conditions: 6.25 mg/ml in drinking solution, 5 days

Row | Structure (SMILES) | % PC (splenic AA fibrils, % of positive control)
21 | COc1cc2c(cc1OC)CN(CCCS(=O)(=O)O)CC2 [I, 3-[2-(6,7-dimethoxy-1,2,3,4-tetrahydroisoquinolinyl)]-1-propanesulfonic acid] | 87 % PC
22 | O=S(=O)(O)CCCN1CCCc2ccccc21 [III, 3-[1-(1,2,3,4-tetrahydroquinolinyl)]-1-propanesulfonic acid] | 87% PC
23 | COc1ccc2c(c1)CCN(CCCS(=O)(=O)O)C2 [IX, 3-[2-(6-methoxy-1,2,3,4-tetrahydroisoquinolinyl)]-1-propanesulfonic acid] | 74 % PC and 40 % PC
24 | O=S(=O)(O)CCCN1CCC2=C(CCCC2)C1 [XVIII, 3-[2-(1,2,3,4,5,6,7,8-octahydroisoquinolinyl)]-1-propanesulfonic acid] | 86% PC

Next, values leading:

Row | % PC (splenic AA fibrils, % of positive control) | Structure (SMILES)
25 | 94 % PC and 91 % PC | O=S(=O)(O)CCCN1CCc2ccccc21 [VII, 3-(1-indolinyl)-1-propanesulfonic acid]
26 | 94% PC | O=C[C@H](NCCCS(=O)(=O)O)[C@@H](O)[C@H](O)[C@H](O)CO [XX, 2-deoxy-2-(3-sulfopropyl)amino-d-glucose]

same assay, conditions: 12.5 mg/ml in drinking solution, 5 days

Row | Structure (SMILES) | % PC (splenic AA fibrils, % of positive control)
27 | COc1cc2c(cc1OC)CN(CCCS(=O)(=O)O)CC2 [I, 3-[2-(6,7-dimethoxy-1,2,3,4-tetrahydroisoquinolinyl)]-1-propanesulfonic acid] | 76 % PC and 68 % PC
28 | O=S(=O)(O)CCCN1CCCc2ccccc21 [III, 3-[1-(1,2,3,4-tetrahydroquinolinyl)]-1-propanesulfonic acid] | 54 % PC and 67 % PC and 56 % PC
29 | COc1ccc2c(c1)CCN(CCCS(=O)(=O)O)C2 [IX, 3-[2-(6-methoxy-1,2,3,4-tetrahydroisoquinolinyl)]-1-propanesulfonic acid] | 64 % PC and 38 % PC

Continued, values first:

Row | % PC (splenic AA fibrils, % of positive control) | Structure (SMILES)
30 | 83% PC | O=S(=O)(O)CCCN1CCc2ccccc21 [VII, 3-(1-indolinyl)-1-propanesulfonic acid]
31 | 69% PC | O=C[C@H](NCCCS(=O)(=O)O)[C@@H](O)[C@H](O)[C@H](O)CO [XX, 2-deoxy-2-(3-sulfopropyl)amino-d-glucose]

same assay, conditions: 25.0 mg/ml in drinking solution, 5 days

Row | % PC (splenic AA fibrils, % of positive control) | Structure (SMILES)
32 | 69% PC | COc1cc2c(cc1OC)CN(CCCS(=O)(=O)O)CC2 [I, 3-[2-(6,7-dimethoxy-1,2,3,4-tetrahydroisoquinolinyl)]-1-propanesulfonic acid]
33 | 82 % PC and 77 % PC | O=S(=O)(O)CCCN1CCCc2ccccc21 [III, 3-[1-(1,2,3,4-tetrahydroquinolinyl)]-1-propanesulfonic acid]
34 | 71 % PC and 97 % PC | O=S(=O)(O)CCCN1CCc2ccccc21 [VII, 3-(1-indolinyl)-1-propanesulfonic acid]

same assay, conditions: overall grade over the concentrations tested

Row | Structure (SMILES) | Activity (in vivo, secondary amyloidosis)
35 | COc1cc2c(cc1OC)CN(CCCS(=O)(=O)O)CC2 [I, 3-[2-(6,7-dimethoxy-1,2,3,4-tetrahydroisoquinolinyl)]-1-propanesulfonic acid] | Moderate
36 | O=S(=O)(O)CCCN1CCCc2ccccc21 [III, 3-[1-(1,2,3,4-tetrahydroquinolinyl)]-1-propanesulfonic acid] | Moderate
37 | COc1ccc2c(c1)CCN(CCCS(=O)(=O)O)C2 [IX, 3-[2-(6-methoxy-1,2,3,4-tetrahydroisoquinolinyl)]-1-propanesulfonic acid] | Active
38 | O=S(=O)(O)CCCN1CCC2=C(CCCC2)C1 [XVIII, 3-[2-(1,2,3,4,5,6,7,8-octahydroisoquinolinyl)]-1-propanesulfonic acid] | Moderate

Next, values leading:

Row | Activity (in vivo, secondary amyloidosis) | Structure (SMILES)
39 | Moderate | O=S(=O)(O)CCCN1CCc2ccccc21 [VII, 3-(1-indolinyl)-1-propanesulfonic acid]
40 | Moderate | O=C[C@H](NCCCS(=O)(=O)O)[C@@H](O)[C@H](O)[C@H](O)CO [XX, 2-deoxy-2-(3-sulfopropyl)amino-d-glucose]
